Measurements from publication PMC8006935, “Study of Combinatorial Drug Synergy of Novel Acridone Derivatives With Temozolomide Using in-silico and in-vitro Methods in the Treatment of Drug-Resistant Glioma” (Frontiers in Oncology, 2021).
Read-outs that look alike come from different tables or passages of the source.

Legend:
[1] = Sulforhodamine B assay, Vero control cells; assay type: cell-based; settings: African green monkey, Vero cells (normal kidney epithelial cells), SRB, read-out: Vero cell Line CC50
Protocol: (§1) In order to test the growth inhibition potential of the TMZ and Acridone derivatives on Glioma, the U-87 (Uppsala 87) Glioma cell lines and T-98 (Temozolomide resistant) Glioma cell lines were treated with Temozolomide (TMZ) and Acridone derivatives AC2, AC7, and AC26. The African Green Monkey Kidney Vero cell lines were used as control for the study. The Vero cell lines were obtained from the National Center for Cell Sciences (NCCS), Pune, while the U-87 and T-98 cell lines were carried in the lab of Dr. GJ Peters, Cancer Center Amsterdam (CCA), VU University Medical Center, Amsterdam, Netherlands. The Mycoplasma testing was done by using the Universal Mycoplasma Detection Kit (ATCC® 30-1012K™) every 6 months. The Vero cell lines have been used as control as they are normal kidney epithelial cells and are non-cancerous in nature. The Vero cell lines have been routinely used for testing cytotoxicity of small molecules by various researchers ([22], [23]). Also, in our previous study, Vero cell lines have been used for testing safety and efficacy of Acridone derivatives for Lung, Cervical, and Breast Cancer studies ([13]).
(§2) Cell viability was found using the Sulforhodamine B (SRB) assay to measure the cellular protein content which provides better sensitivity in comparison to MTT assay ([24]). Moreover, as this method is dependent on the property of the SRB dye, it acts by binding to proteins under slightly acidic conditions and can be exposed to basic conditions for its extraction. The resulting amount of bound dye is then utilized as a proxy for cell mass ([25]). This cell mass can then be extrapolated to measure cell growth.
Glioma cells were cultured in Gibco (RPMI 1640) complemented with 10% fetal calf serum (Gibco). The cultures were then treated with trypsin-EDTA in order to detach/separate the cells from their culture flasks. The quickly proliferating cells were harvested, counted and plated at suitable concentrations in 96-well microplates. These microplates were subsequently incubated for 24 h. After incubation, drug compounds were dissolved in the culture media and placed in 96 well plates in triplicates, which were again incubated at 37°C under 5% CO2 for 72 h. 72 h later, the plates were removed and the cells were treated with cold Trichloroacetic acid (TCA) to fix the cultures and. […] Thereafter, absorbance of the solution was measured at 540 nm utilizing a microplate reader. Absorbance readings (triplicate values) recorded were used to calculate percentage growth inhibition due to the effect of drugs using the following equations.
% Cell growth = Absorbance sample/Absorbance of control or untreated × 100 […]
The IC50 was calculated based on the log graph sheet which was developed in-house at the CCA, VU University Medical Center. […]

[2] = system: U-87 (Uppsala 87) Glioma cell lines; test: Sulforhodamine B assay, U-87 drug sensitive Glioma cells; assay type: cell-based
Protocol: as §1, §2
(§3) Glioma cells were cultured in Gibco (RPMI 1640) complemented with 10% fetal calf serum (Gibco). The cultures were then treated with trypsin-EDTA in order to detach/separate the cells from their culture flasks. The quickly proliferating cells were harvested, counted and plated at suitable concentrations in 96-well microplates. These microplates were subsequently incubated for 24 h. After incubation, drug compounds were dissolved in the culture media and placed in 96 well plates in triplicates, which were again incubated at 37°C under 5% CO2 for 72 h. 72 h later, the plates were removed and the cells were treated with cold Trichloroacetic acid (TCA) to fix the cultures and. 0.4% of SRB dissolved in 1% acetic acid was then added to the culture in order to stain the cells. Next, the bound stain was dissolved in 150 μl of 10 mM unbuffered Tris base left on a gyrator shaker. Thereafter, absorbance of the solution was measured at 540 nm utilizing a microplate reader. Absorbance readings (triplicate values) recorded were used to calculate percentage growth inhibition due to the effect of drugs using the following equations.
(§4) % Cell growth = Absorbance sample/Absorbance of control or untreated × 100
(§5) % Growth inhibition = 100 - % cell growth
(§6) The IC50 was calculated based on the log graph sheet which was developed in-house at the CCA, VU University Medical Center.
(§7) Selectivity Index (SI) is a ratio that measures the window between cytotoxicity and anticancer activity of the drugs ([26]). […] Here, IC50 is the inhibition concentration for inhibiting 50% of cancer cells and CC50 is cytotoxic concentration causing death of 50% viable cells in the host.

[3] = system: T-98 (Temozolomide resistant) Glioma cell lines; test: Sulforhodamine B assay, T-98 TMZ resistant Glioma cells; assay type: cell-based; settings: for IC50: Glioma cell
Protocol: as §1, §2, §3, §4, §5, §6, §7

[4] = system: Drug resistant cancer cells (CR), T-98; test: Mathematical tumor growth model simulation and Bliss synergy, drug resistant cancer cells
[5] = parameters: method as in PMID 18971416; settings: equation proposed by Levin-log permeability; cited from earlier work
[6] = parameters: method as in PMID 20925470; settings: high doses; cited from earlier work
Glioma = system: Glioma; parameters: method as in PMID 19046047; settings: administered along with surgery and radiotherapy; cited from earlier work
[7] = SI = CC50 of Vero cell line /IC50 of Cancer cell line after 72 h

With Cn1nnc2c(C(N)=O)ncn2c1=O [TMZ, 3-Methyl-4-oxo-3,4-dihydroimidazo[5,1-d][1,2,3,5]tetrazine-8-carboxamide] the CC50 at 72 h [1] was 482 µM, the “U-87/WT SI” value [2, 7] was 20.66 and the “Relative growth, experimental data for U-87 cell line” value (shortened to “Relative growth … for U-87 cell line”) ([2]; TMZ dose 0.5) was 98.47%. The “Relative growth … for U-87 cell line” value ([2]; TMZ dose 1) was 97.76%, the “Relative growth … for U-87 cell line” value ([2]; TMZ dose 2.5) was 97% and the “Relative growth … for U-87 cell line” value ([2]; TMZ dose 5) was 94.93%. The “Relative growth … for U-87 cell line” value ([2]; TMZ dose 10) was 87.32%, the “Relative growth … for U-87 cell line” value ([2]; TMZ dose 25) was 50.41% and the “Relative growth … for U-87 cell line” value ([2]; TMZ dose 50) was 47.71%. For the same compound, the “Relative growth … for U-87 cell line” value ([2]; TMZ dose 100) was 40.87%, the IC50 ([2]; U87WT, 72 h, SRB, Mean ± Standard Deviations in Table 4, read-out: U-87/WT IC50) was 23.3 ± 7.57 µM and the IC50 ([3]; 72 h, SRB, Mean ± Standard Deviations in Table 4, read-out: T-98/TMZRES IC50) was greater than 100 µM. The IC50 ([3]; drug administered individually, drug resistant cells, read-out: Initial IC50) was 190 µM, the “T-98/TMZRES SI” value [3, 7] was 2.53 and the “Relative growth, experimental data for T-98 cell line” value (from here on “Relative growth … for T-98 cell line”) ([3]; TMZ dose 0.5) was 98.26%. For the same compound, the “Relative growth … for T-98 cell line” value ([3]; TMZ dose 1) was 97.74%, the “Relative growth … for T-98 cell line” value ([3]; TMZ dose 2.5) was 96.65% and the “Relative growth … for T-98 cell line” value ([3]; TMZ dose 5) was 95%. The “Relative growth … for T-98 cell line” value ([3]; TMZ dose 10) was 87.43%, the “Relative growth … for T-98 cell line” value ([3]; TMZ dose 25) was 61.98% and the “Relative growth … for T-98 cell line” value ([3]; TMZ dose 50) was 52.77%. For the same compound, the “Relative growth … for T-98 cell line” value ([3]; TMZ dose 100) was 50.87%, the “% fold change [(final-initial)/initial]*100” value ([4]; combination TMZ + AC2) was 80.8% and the “Fold change = final IC50/initial IC50” value ([4]; combination TMZ + AC2) was 0.19. For the same compound, the “% fold change [(final-initial)/initial]*100” value ([4]; combination TMZ + AC7) was 75.68%, the “Fold change = final IC50/initial IC50” value ([4]; combination TMZ + AC7) was 0.24 and the “Fold change = final IC50/initial IC50” value ([4]; combination TMZ + AC26) was 0.54. The brain capillary permeability [5] was roughly 2.7 ×10⁻⁶ cm/s, the “dose leading to severe toxicity” value [6] was “more than 250 μM” and the “increase of survival advantage” value (Glioma) was 2.5 times.
